{"source": "patent US8192962B2", "about": "“Processes for detecting toxic substances” (Daikin Industries, Ltd., priority 2001, dated 2012)", "system": "Transport facilitation protein genes", "assay": "DNA chip mRNA expression in yeast, transport facilitation protein genes (Table 5)", "type": "cell-based, Saccharomyces cerevisiae S288C", "summary_of_the_method": "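Ratios compare mRNA levels in stressed and control S. cerevisiae. Each toxicant was applied for two hours to log-phase cultures at 25° C. at a sub-lethal, growth-inhibiting level; fluorescent cDNA (Cy3- or Cy5-dUTP) was hybridized to a genome-wide yeast chip for over 12 h at 65° C.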", "data": [{"compound": "C[S+](C)[O-]", "note": "[(15), dimethylsulfoxide]", "values": [{"measurement": "The level of expressed mRNA in the presence of chemical substance/The level of expressed mRNA in the absence of chemical substance", "setting": "yeast gene YBR052C", "value": 0.7}, {"measurement": "The level of expressed mRNA in the presence of chemical substance/The level of expressed mRNA in the absence of chemical substance", "setting": "yeast gene YIL022W", "value": 2.9}, {"measurement": "The level of expressed mRNA in the presence of chemical substance/The level of expressed mRNA in the absence of chemical substance", "setting": "yeast gene YKL016C", "value": 0.7}, {"measurement": "The level of expressed mRNA in the presence of chemical substance/The level of expressed mRNA in the absence of chemical substance", "setting": "yeast gene YLR081W", "value": 0.7}, {"measurement": "The level of expressed mRNA in the presence of chemical substance/The level of expressed mRNA in the absence of chemical substance", "setting": "yeast gene YPR194C", "value": 0.4}]}]}
